Measurements as given in paper PMC8485325, “Penetrating the Blood-Brain Barrier with New Peptide–Porphyrin Conjugates Having anti-HIV Activity” (Bioconjugate Chemistry, 2021).
Read-outs that look alike come from different tables or passages of the source. Ends that are not written are not given here.

What was measured:
human erythrocytes = assay: Hemolysis assay; type: cell-based
Method: Plates were incubated for 1 h at 37 °C with 100 rpm stirring, then centrifuged for 5 min at 4000 rpm, 4 °C, and supernatants were transferred to a 96-well flat-bottom polystyrene plate (Corning). Hemolysis was assessed by hemoglobin (Hb) release, measured by absorbance at 415 nm in a Varioskan LUXTM microplate reader (Thermo Fisher Scientific, Inc.). As porphyrin and Hb spectra are partially overlapping, to exclude porphyrin interference in Hb quantification a blank reading of each PPC (no hRBCs, TN buffer +1% DMSO) was subtracted from each measurement. TN buffer (+1% DMSO, no conjugate) and hRBCs with 1% Triton X-100 were used as negative and positive controls, respectively. Hemolysis (%) was determined using the following equation: [drawing 6] 6 where Abstreated is the absorbance of hRBC treated with the conjugates, Absconjugate is the absorbance from each conjugate concentration without hRBCs, AbsTriton is the absorbance of Triton X-100 treated hRBCs, and Absbuffer is the absorbance of TN buffer alone. HC50 values were determined by GraphPad Prism 8 software using a log(inhibitor) vs normalized response (variable slope). Experiments were performed using 3 different blood donors.

[1] = Cell viability assay (CellTiter-Blue); type: cell-based, murine; conditions: for CC50 at 24 h: mouse
Method: (§1) bEnd.3 cells were plated in fibronectin precoated 96-well flat-bottom clear black polystyrene plate (Corning, New York, USA) as previously described. Cells were then cultured in complete medium at 37 °C in a 5% CO2 atmosphere, with medium replaced every 2 days. […] Viability was evaluated by the CellTiter-Blue assay (Promega, Wisconsin, USA), based on resazurin reduction into highly fluorescent resorufin by metabolically active cells. By distinguishing metabolic from nonmetabolic cells, cytotoxicity can be indirectly determined. After incubation, cells were washed with PBS, pH 7.4, and 15 μL of CellTiterBlue reagent in 100 μL of complete medium was added to the cells and incubated for 1.5 h at 37 °C in 5% CO2. Fluorescence was measured at 590 nm, with excitation at 560 nm, using an Infinite F200 plate reader (Tecan, Switzerland). Complete medium and medium containing 0.25% Triton X-100 were used as positive and negative controls (100% and 0% viability), respectively. Cell viability (%) was determined using the following equation: [drawing 5] 5 where […] is the fluorescence emission of conjugate-treated cells, Fnontreated is the fluorescence emission of the control nontreated cells, and Fblank is the fluorescent emission of CellTiter reagent in complete medium without cells.

bEnd.3 cells = assay: Cell viability assay (CellTiter-Blue); type: cell-based, murine
Method: as §1

bEnd.3 cell monolayers [2] = tested on: bEnd.3 cell monolayers
Method: (§2) Figure 4 PPCs translocation across a bEnd.3 in vitro BBB model. (A) bEnd.3 in vitro BBB model transwell system. The insert, or apex, corresponds to the blood side, while the base (bottom chamber) corresponds to the brain side. (B) After formation of a monolayer, 10 μM of each conjugate was added to the apical side of the tissue culture inserts. After incubation for 24 h, samples from the basolateral side were collected, and the percentage of translocation of each conjugate (black) was calculated. FD4 permeability (gray) was measured to determine monolayer integrity post-PPCs translocation.
After 24 h incubation with conjugates, an in vitro integrity assay was performed.[19] Briefly, cells were washed twice with PBS and once with DMEM medium without phenol red. Then, previously diluted 4 kDa fluorescein isothiocyanate-dextran (FD4) (Sigma-Aldrich, Spain) in DMEM without phenol red to an absorbance of 0.1 was added to the apical side and incubated for 2 h. Samples were collected from the apical and basolateral side, and fluorescence intensity was measured with λext = 493 nm and λem = 520 nm, using a Varioskan Lux plate reader. The integrity of the barrier was determined as follows: [drawing 2] 2 where Fi is the recovered fluorescence intensity, Fcells is the recovered fluorescence intensity from cells without FD4 incubation, FFD4 is the fluorescence intensity of total FD4 initially added to the transwell apical side, and FMedium is the fluorescence intensity of DMEM medium without phenol red.

HIV-1NL4-3 = assay: In vitro inhibition of HIV-1NL4-3 infection of TZM-bl cells (luciferase reporter); type: cell-based
Method: Viral supernatants harvested from pNL4-3-transfected HEK293T cells were titered through the Reed-Muench method[56] based on HIV-1NL4–3 infectivity against TZM-bl cell cultures. TZM-bl cells were seeded at 2 × 10^4 cells/well in tissue culture-treated 96-well microplates from Corning (Corning, NY, USA), and incubated for 24 h. Cells were then incubated with 2-fold serial dilutions of viral supernatants for 3 h, after which the supernatant was replaced with fresh complete medium. After 45 h, TZM-bl cell infection was quantified through luciferase reporter-gene expression levels, under the control of an HIV-1 TAT-dependent LTR promoter[57] using the Luc-Screen luciferase chemiluminescence detection system. Luminescence was measured in an Infinite M200 microplate reader from Tecan (Männedorf, Switzerland). […] Titration was performed with at least four replicates to allow accurate estimation of TCID50 in viral supernatants.
The inhibitory activity of conjugates on HIV-1NL4–3 entry into TZM-bl cells was evaluated as previously described.[58] TZM-bl cells were seeded at 2 × 10^4 cells/well in tissue culture-treated 96-well microplates and incubated for 24 h. HIV-1NL4–3 viral supernatants (100 or 10 TCID50/well) were then incubated for 1 h with 2-fold serial dilutions of either nonconjugated peptide and porphyrins or conjugates, after which the infection mixture was added to TZM-bl cells. Untreated cells (in the absence of peptide–porphyrin conjugate) were used as control. Virions were incubated with cells for 3 h, after which cells were washed to remove unbound virions and new medium was added. After 45 h, infection was quantified by the Luc-Screen chemiluminescence assay. Measurements were performed in an Infinite M200 microplate reader. […] At least three independent experiments were performed for each assay.

bEnd.3 cell monolayers [3] = assay: In vitro BBB translocation assay (bEnd.3 transwell model)
Text: Assessment of PPC efficacy in BBB translocation was done in a transwell setup (Figure 4A) using bEnd.3 cell monolayers.[44] The bEnd.3 in vitro BBB model consists of a monolayer of cells expressing a range of essential BBB transporters, also bearing the low permeability characteristic of the BBB, suitable for this study.[44]−[46]
as §2
An in vitro BBB model consisting of endothelial cells growing on the apical side of a porous membrane was used.[46] bEnd.3 cells (ATTCC-CRL2299) were cultured as a monolayer on T-flasks in DMEM supplemented with 10% fetal bovine serum (FBS), 1% penicillin/streptomycin. Cells were grown in a humidified atmosphere of 5% CO2 at 37 °C (MCO-18AIC (UV), Sanyo, Japan) with the medium changed every other day. Cells were allowed to grow until confluence in a culture T-flask, and then carefully harvested with trypsin-EDTA and seeded (3500 cells/well) onto fibronectin-coated tissue culture 24-well inserts (transparent polyester membrane with 1.0 μm pores) (BD Falcon, USA). The medium was changed every other day for 10 days, after which cells were washed twice with 1× PBS and once with DMEM medium without phenol red. Next, conjugates diluted in DMEM without phenol red to a final concentration of 10 μM were added to the apical side of the in vitro BBB model (Figure 4A). Experiments were performed on different days using independently grown cell cultures.
The translocation of conjugates was determined by fluorescence intensity (λexc = 380 nm and λem = 625 nm for MP conjugates, and λexc = 380 nm and λem = 675 nm for PP conjugates). P3-CF and P5-CF, peptides labeled with 5(6)-Carboxyfluorescein (CF), were used as positive translocation controls (λexc = 492 nm and λem = 517 nm). After 24 h incubation, samples from the apical and basolateral side were collected and analyzed. Fluorescence was measured using a Varioskan Lux plate reader (Thermo Scientific, MA, USA). The percentage (%) of translocation was calculated using the following equation: [drawing 1] 1 where Fi is the recovered fluorescence intensity, Fcells is the recovered fluorescence intensity from cells without the conjugate, and Fconjugate is the fluorescence intensity of total peptide initially added to the transwell apical side.

TZM-bl cells = type: cell-based
Method: TZM-bl Cell Viability Studies
The cytotoxic effects of each PPC on TZM-bl cell cultures were assessed to ensure that HIV inhibition was a result of the compounds effect on the virus and not on the host cells used in the assay. A resazurin reduction fluorometric assay was performed. Resazurin, the active compound in alamarBlue®, is a blue dye that can be reduced to a pink fluorescent intermediate, resorufin, as a result of cell metabolic activity.6 TZM-bl cells were seeded at 2x10^4 cells/well in tissue culture-treated 96-well microplates and incubated for 24 h. Cells were then incubated with serial dilutions (2-fold) of single peptide and porphyrins, or PPC, for 3 h, after which the mixture was replaced with fresh complete medium. Untreated cells (in the absence of peptide-porphyrin combinations) were used as a control. After 42 h, media was replaced with alamarBlue® reagent and incubated for an additional 3 h. Resazurin reduction was quantified by resorufin fluorescent emission intensity, measured in an Infinite M200 microplate reader. Fluorescence emission intensity was collected at 590 nm, using a fixed λ exc of 560 nm. Excitation and emission slits were 9 and 20 nm, respectively. Cell viability was calculated through the following formalism: […]
where I EI corresponds to the resorufin fluorescence emission intensity in the presence of EIs or combination, I control to the fluorescence emission intensity in the absence of EIs and I background to the background fluorescence emission from the non-reduced […]
P5, P4-MP, MP-L-P3 and P4-L-M - are presented here.
TZM-bl cell viability on the concentration range tested.
(1 picture or pasted object on this page, not shown here)
Figure S7. PPCs cytotoxic effects against TZM-bl cells. A resazurin reduction fluorometric assay, dependent on the cell metabolic activity, was used. Cell viability, normalized to the control in the absence of PPC, was measured against three concentrations of each individual PPC: MP-P3 (black), MP-P5 (white), P4-MP (red), MP-L-P3 (blue) and P4-L-MP (green).

Compound: H-VQQLTKRFSL-NH2 [P1, reference compound]
- HC50: 50% lytic concentration for human erythrocytes (human erythrocytes; 1 h at 37 °C, 0.1–50 μM range): >50 µM
- CC50 ([1]; 24 h, 6.25–50 μM range): > 50 µM

Compound: PP-P3: protoporphyrin IX coupled to the N-terminal NH2 group of peptide P3 (AGILKRW-amide) ({protoporphyrin IX}-AGILKRW-NH2)
- CC50 (bEnd.3 cells): > 50 µM
- % Base (RFI), FD4 Permeability (monolayer integrity post-translocation) (bEnd.3 cell monolayers [2]): 7.2%

Compound: H-SGTQEEY-NH2 [P5, SGTQEEY-amide, reference compound]
- HC50: 50% lytic concentration for human erythrocytes (human erythrocytes; red cells of human, 1 h): >50 µM
- CC50 [1]: > 50 µM

Compound: O=C(O)CN(CCOCCOCCN(CC(=O)O)CC(=O)O)CC(=O)O [EGTA, reference compound]
- % Base (RFI), FD4 Permeability (monolayer integrity post-translocation) (bEnd.3 cell monolayers [2]): 26.8%

Compound: C=CC1=C(C)c2cc3[nH]c(cc4nc(cc5[nH]c(cc1n2)c(C)c5CCC(=O)O)C(CCC(=O)O)=C4C)c(C)c3C=C [PP, protoporphyrin IX, reference compound]
- IC50 (HIV-1NL4-3; Human immunodeficiency virus 1, TZM-bl, read-out: IC50 HIV inhibition, 100 TCDI50): > 50 µM
- HC50: 50% lytic concentration for human erythrocytes (human erythrocytes; human, 1 h, pH 7.4): >50 µM
- CC50 at 24 h [1]: > 50 µM
- BBB translocation (in words) (bEnd.3 cell monolayers [3]): translocated the monolayer
- % Base (RFI), Translocation (bEnd.3 cell monolayers [3]; mouse, 24 h, 10 μM): 38.3%
- % Base (RFI), FD4 Permeability (monolayer integrity post-translocation) (bEnd.3 cell monolayers [2]; mouse, 2 h, 10 μM): 8.7%

Compound: H-AGILKRW-NH2 [P3, AGILKRW-amide, reference compound]
- HC50: 50% lytic concentration for human erythrocytes (human erythrocytes; 1 h at 37 °C, 0.1–50 μM range): >50 µM
- CC50 ([1]; 24 h, 6.25–50 μM range): > 50 µM

Compound: CCC1=C(C)c2cc3[nH]c(cc4nc(cc5[nH]c(cc1n2)c(C)c5CCC(=O)O)C(CCC(=O)O)=C4C)c(C)c3CC [MP, mesoporphyrin IX, reference compound]
- IC50 (HIV-1NL4-3; Human immunodeficiency virus 1, 100 TCDI50 per well, TZM-bl cells, no-light, read-out: IC50 HIV inhibition, 100 TCDI50): > 50 µM
- HC50: 50% lytic concentration for human erythrocytes (human erythrocytes; 1 h at 37 °C, 0.1–50 μM range): >50 µM
- CC50 at 24 h ([1]; bEnd.3 cells, 24 h, 6.25–50 μM range): > 50 µM
- BBB translocation (in words) (bEnd.3 cell monolayers [3]; bEnd.3 monolayer in vitro model): translocated the monolayer

Compound: P6-MP: mesoporphyrin IX coupled to the C-terminal Lys side chain of peptide P6 (SGTQEEYK-amide) (SGTQEEYK(mesoporphyrin IX)-NH2)
- HC50: 50% lytic concentration for human erythrocytes (human erythrocytes; 1 h at 37 °C, 0.1–50 μM range): >50 µM
- CC50 (bEnd.3 cells; read-out: CC50: 50% cytotoxic concentration toward bEnd.3 cells, 24 h, 6.25–50 μM range): > 50 µM

Compound: P4-PP: protoporphyrin IX coupled to the Lys side-chain NH2 group of peptide P4 (AGILKRWK-amide) (AGILKRWK-NH2; also: protoporphyrin IX on a Lys side chain, Lys not given here)
- CC50 (bEnd.3 cells): > 50 µM
- % Base (RFI), FD4 Permeability (monolayer integrity post-translocation) (bEnd.3 cell monolayers [2]): 9.9%

Compound: MP-P3: mesoporphyrin IX coupled to the N-terminal amino group of peptide P3 (AGILKRW-amide) ({mesoporphyrin IX}-AGILKRW-NH2)
- IC50 (HIV-1NL4-3; 10 TCDI50 per well (approximate physiological conditions of HIV brain infection), TZM-bl cells, read-out: IC50 HIV inhibition, 10 TCDI50): 1.38 ± 1.1 µM
- IC50 (HIV-1NL4-3; 100 TCDI50 per well, TZM-bl cells, no-light, read-out: IC50 HIV inhibition, 100 TCDI50): 16.1 ± 1.3 µM
- CC50 (bEnd.3 cells): 48.2 µM
- TZM-bl cell viability (in words) (TZM-bl cells): did not alter significantly
- % Base (RFI), FD4 Permeability (monolayer integrity post-translocation) (bEnd.3 cell monolayers [2]): 10.2%
